Here are results for 14 compounds from ChEMBL document CHEMBL1201862, “PubChem BioAssay data set” (2004).

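Compound exposure: 48 hours, 5 concentrations, 96-well plates. GI50 is the concentration that inhibits growth by half.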 The source made the active and inactive calls. Rule as the data show it: active = GI50 up to about 1.1 µM and inactive = higher.

Among the test systems are SN12C; Malme-3M; KM12; UACC-257; HOP-62; SNB-75; A549; COLO 205; SF-268; HL-60; CAKI-1; HT-29; LOX IMVI; M19-MEL; A498; Hs-578T; NCI/ADR-RES; BT-549; PC-3; MDA-N.
Holding throughout (assay): growth of human tumour cells (NCI), 48 h

On to `COc1cc(C=C2C(=O)NC(=O)NC2=O)cc(OC)c1OC`, for which the GI50 in the experiment on SN12C was > 100 µM (inactive); in the experiment with Malme-3M it was > 100 µM (inactive); with KM12, > 100 µM (inactive); with UACC-257, > 100 µM (inactive); with HOP-62, > 100 µM (inactive); with SNB-75, 80.2 µM (inactive). Further, the GI50 in the experiment with A549, with COLO 205, with SF-268, with HL-60, in the experiment on CAKI-1 and in the experiment on HT-29 was > 100 µM (inactive) in each case. Also, the GI50 in the experiment with LOX IMVI and in the experiment with M19-MEL was > 100 µM (inactive) in each case.

For `CCOC(=O)C12CN(C34CC5CC(CC(C5)C3)C4)CC(C(=O)OCC)(C1=O)C(c1ccccc1)OC2c1ccccc1` (configuration not stated), the GI50 in the experiment on A498 was > 100 µM (inactive); with SN12C, > 10 µM (inactive); with Malme-3M it was > 100 µM (inactive); in the experiment on KM12, > 100 µM (inactive); in the experiment with UACC-257, > 100 µM (inactive); in the experiment on HOP-62, > 100 µM (inactive). In addition, the GI50 with SNB-75 is 39.7 µM (inactive); in the experiment on A549, > 100 µM (inactive); in the experiment with COLO 205, > 100 µM (inactive); with SF-268, > 100 µM (inactive); in the experiment on HL-60, 9.25 µM (inactive); in the experiment on HT-29, 61 µM (inactive). Also, the GI50 was 3.54 µM (inactive) in the experiment with LOX IMVI and > 100 µM (inactive) in the experiment on M19-MEL.

As to `CCCCN(CCCC)C(=Nc1ccccc1)N(CCCC)CCCC`, the GI50 is 9.62 µM (inactive) with A498; 7.94 µM (inactive) in the experiment with Malme-3M; 3.7 µM (inactive) in the experiment with KM12; 7.41 µM (inactive) in the experiment with UACC-257; 6.87 µM (inactive) in the experiment on HOP-62; 16.4 µM (inactive) in the experiment on SNB-75. In addition, the GI50 with A549 is 7.62 µM (inactive); with COLO 205 it was 2.77 µM (inactive); in the experiment with SF-268 it was 11.2 µM (inactive); in the experiment on HL-60 it was 1.79 µM (inactive); in the experiment with HT-29 it was 2.36 µM (inactive); with LOX IMVI, 3.15 µM (inactive). The GI50 with M19-MEL was 8.39 µM (inactive).

Consider `Cc1c(-c2coc(-c3ccc([N+](=O)[O-])cc3)n2)c(=O)n(-c2ccccc2)n1C`, for which the GI50 with A498, in the experiment with SN12C, with Malme-3M, in the experiment with KM12, in the experiment with UACC-257 and with HOP-62 was > 100 µM (inactive) throughout. In addition, the GI50 with SNB-75, with A549, in the experiment with COLO 205, in the experiment with SF-268, in the experiment with HL-60 and in the experiment on HT-29 was > 100 µM (inactive) each time. The GI50 in the experiment on LOX IMVI and with M19-MEL was > 100 µM (inactive) throughout.

In the case of `O=C(c1ccccc1)C1S(=O)(=O)OCCOS1(=O)=O`, the GI50 with SN12C, in the experiment with Malme-3M, in the experiment with KM12, with UACC-257, in the experiment with HOP-62 and with SNB-75 was > 100 µM (inactive) throughout. Also, the GI50 with A549, in the experiment with COLO 205, in the experiment with SF-268, in the experiment on HL-60, with CAKI-1 and with HT-29 was > 100 µM (inactive) throughout. For the same compound, the GI50 in the experiment on LOX IMVI and with M19-MEL was > 100 µM (inactive) each time.

`Cc1ccc(NC(=O)OCC(COc2ccc(Cl)cc2Cl)OC(=O)Nc2ccc(C)cc2)cc1` (configuration not stated): the GI50 with A498, in the experiment on SN12C, in the experiment with Malme-3M, in the experiment with KM12, in the experiment with UACC-257 and with HOP-62 was > 100 µM (inactive) each time. Moreover, the GI50 in the experiment with SNB-75 is 27 µM (inactive); with A549, > 100 µM (inactive); in the experiment on COLO 205 it was > 100 µM (inactive); in the experiment on SF-268, > 100 µM (inactive); in the experiment with CAKI-1, < 0.01 µM (active); in the experiment on HT-29 it was > 100 µM (inactive). For the same compound, in the experiment with M19-MEL, the GI50 is > 100 µM (inactive).

As to `CCOC(=O)CC(=O)Sc1ccccc1`, the GI50 in the experiment with A498 was 15.8 µM (inactive); in the experiment with SN12C it was 10.3 µM (inactive); with Malme-3M, 25.6 µM (inactive); in the experiment with KM12 it was 25.6 µM (inactive); in the experiment with UACC-257, 28.1 µM (inactive); in the experiment on HOP-62 it was 27.1 µM (inactive). Besides, the GI50 with A549 was 14.6 µM (inactive); in the experiment with COLO 205 it was 25.9 µM (inactive); in the experiment with SF-268, 3.25 µM (inactive); in the experiment with HL-60, 13.4 µM (inactive); with HT-29, 22.7 µM (inactive); with LOX IMVI, 12.8 µM (inactive). Also, the GI50 in the experiment on M19-MEL is 17.9 µM (inactive).

As for `O=C1C2c3[nH]c4ccccc4c3C3CCCCCCC3C2C(=O)N1c1ccccc1` (configuration not stated), the GI50 in the experiment with A498 was 15.5 µM (inactive); with SN12C it was 6.03 µM (inactive); in the experiment with Malme-3M, 3.33 µM (inactive); with KM12, 33.6 µM (inactive); in the experiment with SNB-75 it was 2.23 µM (inactive); in the experiment with A549, 8.65 µM (inactive). Besides, the GI50 is 7.64 µM (inactive) in the experiment with COLO 205; 21.6 µM (inactive) in the experiment with SF-268; 19.9 µM (inactive) with HT-29; 5 µM (inactive) in the experiment with LOX IMVI; 10.9 µM (inactive) with M19-MEL.

Turning to `CC(=O)OCCC(O[Si](c1ccccc1)(c1ccccc1)C(C)(C)C)C(C)(C)O` (configuration not stated), the GI50 with A498 was > 100 µM (inactive); with SN12C, 18.3 µM (inactive); with Malme-3M it was > 100 µM (inactive); in the experiment on KM12 it was 23.3 µM (inactive); with UACC-257 it was 26.5 µM (inactive); in the experiment on SNB-75, 35.6 µM (inactive). Besides, the GI50 in the experiment with A549 is 34.5 µM (inactive); in the experiment on COLO 205, 15.8 µM (inactive); in the experiment on SF-268, 38.5 µM (inactive); in the experiment with HT-29 it was 27.4 µM (inactive); in the experiment with LOX IMVI, 24 µM (inactive); with M19-MEL it was 23.1 µM (inactive).

For the compound `CC(=O)C(C(=O)c1ccc(C)cc1)[C@@H]1OC(C)(C)O[C@@H]1[C@H]1COC(C)(C)O1` (some centres not stated), the GI50 with Hs-578T is 3.84 µM (inactive); with A498, 36.9 µM (inactive); in the experiment with SN12C it was 3.97 µM (inactive); in the experiment on Malme-3M, 15.9 µM (inactive); with KM12 it was 4.02 µM (inactive); in the experiment with UACC-257, 12.4 µM (inactive). For the same compound, the GI50 in the experiment with HOP-62 is 10.5 µM (inactive); in the experiment on NCI/ADR-RES, 9.93 µM (inactive); in the experiment with SNB-75, 13.4 µM (inactive); in the experiment on BT-549, 15 µM (inactive); in the experiment with A549, 19.6 µM (inactive); in the experiment on PC-3, 8.57 µM (inactive). The GI50 in the experiment on COLO 205 was 18.1 µM (inactive); in the experiment with SF-268 it was 9.23 µM (inactive); with HL-60 it was 1.67 µM (inactive); in the experiment on CAKI-1, 21.5 µM (inactive); in the experiment on MDA-N it was 7.21 µM (inactive); in the experiment with HT-29, 5.21 µM (inactive). The GI50 in the experiment with LOX IMVI was 6.43 µM (inactive).

As for `O=C1C2CCC(C2)C12CC1(c3ccccc3)C(=O)c3ccccc3N1O2` (configuration not stated), the GI50 in the experiment with A498, in the experiment with SN12C, in the experiment on Malme-3M, in the experiment with UACC-257, in the experiment with HOP-62 and in the experiment on SNB-75 was > 100 µM (inactive) in each case. Moreover, the GI50 in the experiment on A549 was > 100 µM (inactive); with COLO 205, > 100 µM (inactive); in the experiment on SF-268, > 100 µM (inactive); with HL-60 it was 42.1 µM (inactive); with HT-29, > 100 µM (inactive); in the experiment with M19-MEL, > 100 µM (inactive).

`C[C@@H](NC1CCCC[C@@H]1O)c1ccccc1` (some centres not stated): the GI50 is > 100 µM (inactive) in the experiment on SN12C; > 100 µM (inactive) in the experiment with Malme-3M; > 100 µM (inactive) in the experiment on KM12; > 100 µM (inactive) in the experiment on UACC-257; > 100 µM (inactive) in the experiment on HOP-62; 98.4 µM (inactive) in the experiment with SNB-75. Further, the GI50 in the experiment on A549, with COLO 205, in the experiment with HL-60, in the experiment on CAKI-1, with HT-29 and in the experiment on LOX IMVI was > 100 µM (inactive) in each case. Further, in the experiment with M19-MEL, the GI50 is > 100 µM (inactive).

As for `CC/C=C/c1cc2cc[nH]c2c2c1C(C)C[C@@H]2C` (some centres not stated), the GI50 in the experiment on A498 is 16.3 µM (inactive); with SN12C, 18.9 µM (inactive); in the experiment on Malme-3M, > 100 µM (inactive); in the experiment with KM12, 19.8 µM (inactive); in the experiment on UACC-257, 32.8 µM (inactive); in the experiment with SNB-75, 27.4 µM (inactive). The GI50 was 35.9 µM (inactive) in the experiment with A549; 18.2 µM (inactive) in the experiment with COLO 205; 26.7 µM (inactive) in the experiment on HL-60; 32.8 µM (inactive) with CAKI-1; 28.6 µM (inactive) in the experiment with HT-29; 17.1 µM (inactive) in the experiment on LOX IMVI. For the same compound, in the experiment with M19-MEL, the GI50 is 27.5 µM (inactive).

`CC(=O)OC(C[C@H](C)[C@@H]1CC[C@]2(C)C3=CCC4C(C)(C)C(=O)CC[C@]4(C)C3CCC12C)C1OC1(C)C` (some centres not stated): the GI50 with A498 is 17.1 µM (inactive); in the experiment on Malme-3M, 25.1 µM (inactive); in the experiment on KM12, 20 µM (inactive); in the experiment with UACC-257, 20.3 µM (inactive); with HOP-62 it was 20.4 µM (inactive); in the experiment with A549 it was 21.2 µM (inactive). Besides, the GI50 was 19.9 µM (inactive) in the experiment with COLO 205; 21.6 µM (inactive) in the experiment with SF-268; 7.29 µM (inactive) in the experiment on HL-60; 15.7 µM (inactive) in the experiment with HT-29; 27.9 µM (inactive) in the experiment on LOX IMVI; 31.2 µM (inactive) in the experiment with M19-MEL.
